pIC50: −log10 of the molar value.
The molecules below were run against Cholinesterase (Equus caballus, UniProt P81908) (assay: Inhibition of equine serum BuChE by Ellman's method).
Chain of Cholinesterase (P81908 whole entry): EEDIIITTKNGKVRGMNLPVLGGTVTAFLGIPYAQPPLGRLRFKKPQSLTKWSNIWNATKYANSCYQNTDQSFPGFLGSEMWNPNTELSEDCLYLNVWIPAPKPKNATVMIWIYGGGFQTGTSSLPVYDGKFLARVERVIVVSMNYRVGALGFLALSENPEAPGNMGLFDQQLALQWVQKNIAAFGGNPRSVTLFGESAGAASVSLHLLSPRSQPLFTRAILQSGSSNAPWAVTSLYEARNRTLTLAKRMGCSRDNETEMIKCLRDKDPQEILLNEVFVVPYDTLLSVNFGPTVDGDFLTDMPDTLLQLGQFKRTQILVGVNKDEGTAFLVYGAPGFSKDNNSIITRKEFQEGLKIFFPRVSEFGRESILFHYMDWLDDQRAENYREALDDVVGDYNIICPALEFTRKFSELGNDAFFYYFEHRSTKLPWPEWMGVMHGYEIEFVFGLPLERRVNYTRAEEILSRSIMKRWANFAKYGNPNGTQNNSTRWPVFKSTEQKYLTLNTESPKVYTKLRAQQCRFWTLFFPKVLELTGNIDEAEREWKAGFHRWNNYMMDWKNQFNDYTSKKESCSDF
With `COc1ccc2cc3[n+](cc2c1OCCC(=O)Nc1ccc([N+](=O)[O-])cc1)CCc1cc2c(cc1-3)OCO2` the pIC50 was 5.26.

Each molecule was assayed against Acetylcholinesterase (Electrophorus electricus, UniProt O42275) (assay: Inhibition of electric eel AChE by Ellman's assay).
Chain of Acetylcholinesterase (O42275 whole entry): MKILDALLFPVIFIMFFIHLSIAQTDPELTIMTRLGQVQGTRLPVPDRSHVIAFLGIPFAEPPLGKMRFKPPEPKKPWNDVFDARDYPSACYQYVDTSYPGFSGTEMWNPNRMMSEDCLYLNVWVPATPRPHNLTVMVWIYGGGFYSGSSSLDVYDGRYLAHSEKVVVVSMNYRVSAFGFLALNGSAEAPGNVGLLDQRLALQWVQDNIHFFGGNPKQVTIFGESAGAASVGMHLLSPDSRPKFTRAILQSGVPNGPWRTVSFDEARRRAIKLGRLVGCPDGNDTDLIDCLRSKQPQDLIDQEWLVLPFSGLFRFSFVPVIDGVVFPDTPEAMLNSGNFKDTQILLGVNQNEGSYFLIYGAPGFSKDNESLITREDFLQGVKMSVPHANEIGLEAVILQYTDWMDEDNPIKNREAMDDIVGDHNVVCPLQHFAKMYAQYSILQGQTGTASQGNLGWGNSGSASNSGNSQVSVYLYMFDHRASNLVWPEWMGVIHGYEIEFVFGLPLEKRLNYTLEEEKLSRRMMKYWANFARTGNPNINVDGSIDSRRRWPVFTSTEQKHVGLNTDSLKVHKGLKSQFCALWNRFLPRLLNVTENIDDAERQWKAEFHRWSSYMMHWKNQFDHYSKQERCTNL
With `COc1ccc2cc3[n+](cc2c1OCCCOc1ccc([N+](=O)[O-])cc1)CCc1cc2c(cc1-3)OCO2` the pIC50 was 6.40.
`COc1ccc2cc3[n+](cc2c1OCCCCOc1ccc([N+](=O)[O-])cc1)CCc1cc2c(cc1-3)OCO2` was tested, and the pIC50 was 6.31.
`COc1ccc2cc3[n+](cc2c1OCCCCSc1ccc2ccccc2c1)CCc1cc2c(cc1-3)OCO2` was tested, and the pIC50 was 5.87.
With `COc1ccc2cc3[n+](cc2c1OCCC(=O)Nc1ccc([N+](=O)[O-])cc1)CCc1cc2c(cc1-3)OCO2` the pIC50 was 5.19.
Work on `COc1ccc2cc3[n+](cc2c1OCCCOc1ccc(Br)cc1)CCc1cc2c(cc1-3)OCO2` yielded a pIC50 of 6.58.
In the case of `COc1ccc2cc3[n+](cc2c1OCCCN(C)c1ccccc1)CCc1cc2c(cc1-3)OCO2`, the pIC50 was 6.81.
With `COc1ccc(OCCCOc2c(OC)ccc3cc4[n+](cc23)CCc2cc3c(cc2-4)OCO3)cc1` the pIC50 was 6.00.
Molecule `COc1ccc(NC(=O)CCOc2c(OC)ccc3cc4[n+](cc23)CCc2cc3c(cc2-4)OCO3)cc1` has a pIC50 of 5.55.
`COc1ccc2cc3[n+](cc2c1OCCC[n+]1ccccc1)CCc1cc2c(cc1-3)OCO2` showed a pIC50 of 6.44.
With `COc1ccc2cc3[n+](cc2c1OCCCOc1ccc2ccccc2c1)CCc1cc2c(cc1-3)OCO2` the pIC50 was 6.44.
In the case of `COc1ccc2cc3[n+](cc2c1OCCCNc1ccccc1)CCc1cc2c(cc1-3)OCO2`, the pIC50 was 6.86.
`COc1ccc2cc3[n+](cc2c1OCCC(=O)Nc1ccc(C)cc1)CCc1cc2c(cc1-3)OCO2` showed a pIC50 of 5.84.
`COc1ccc2cc3[n+](cc2c1OCC[n+]1cccc(C)c1)CCc1cc2c(cc1-3)OCO2` gave a pIC50 of 7.32.
`COc1ccc2cc3[n+](cc2c1OCCCCOc1ccc2ccccc2c1)CCc1cc2c(cc1-3)OCO2` was tested, and the pIC50 was 5.72.
`COc1ccc(OCCCCOc2c(OC)ccc3cc4[n+](cc23)CCc2cc3c(cc2-4)OCO3)cc1` was tested, and the pIC50 was 6.13.
For `COc1ccc2cc3[n+](cc2c1OCCC(=O)Nc1ccccc1)CCc1cc2c(cc1-3)OCO2`, the pIC50 was 6.27.
For `COc1ccc2cc3[n+](cc2c1OCCC(=O)Nc1ccc(Cl)cc1)CCc1cc2c(cc1-3)OCO2`, the pIC50 was 5.41.
In the case of `COc1ccc2cc3[n+](cc2c1OCC[n+]1ccccc1)CCc1cc2c(cc1-3)OCO2`, the pIC50 was 6.71.
With `COc1ccc2cc3[n+](cc2c1OCCCOc1ccc(Cl)cc1)CCc1cc2c(cc1-3)OCO2` the pIC50 was 6.15.
`COc1ccc2cc3[n+](cc2c1OCCCSc1ccc2ccccc2c1)CCc1cc2c(cc1-3)OCO2` showed a pIC50 of 6.30.
With `COc1ccc2cc3[n+](cc2c1OCCCOc1c(OC)ccc2cc4[n+](cc12)CCc1cc2c(cc1-4)OCO2)CCc1cc2c(cc1-3)OCO2` the pIC50 was 6.65.
In the case of `COc1ccc2cc3[n+](cc2c1OCCC[n+]1cccc(C)c1)CCc1cc2c(cc1-3)OCO2`, the pIC50 was 6.82.
In the case of `COc1ccc2cc3[n+](cc2c1OCCCCOc1ccccn1)CCc1cc2c(cc1-3)OCO2`, the pIC50 was 6.47.
With `COc1ccc2cc3[n+](cc2c1OCCCCOc1c(OC)ccc2cc4[n+](cc12)CCc1cc2c(cc1-4)OCO2)CCc1cc2c(cc1-3)OCO2` the pIC50 was 6.75.
`COc1ccc2cc3[n+](cc2c1OCCCCOc1ccc(Br)cc1)CCc1cc2c(cc1-3)OCO2` showed a pIC50 of 6.13.
`COc1ccc2cc3[n+](cc2c1OCCCOc1ccc(C)cc1)CCc1cc2c(cc1-3)OCO2` showed a pIC50 of 6.06.
Work on `COc1ccc2cc3[n+](cc2c1OCCOc1c(OC)ccc2cc4[n+](cc12)CCc1cc2c(cc1-4)OCO2)CCc1cc2c(cc1-3)OCO2` yielded a pIC50 of 6.49.
`COc1ccc2cc3[n+](cc2c1OCCCCOc1ccc(Cl)cc1)CCc1cc2c(cc1-3)OCO2` showed a pIC50 of 5.82.

— ChEMBL document CHEMBL1165944, “Synthesis and biological evaluation of a new series of berberine derivatives as dual inhibitors of acetylcholinesterase and butyrylcholinesterase” (Bioorg Med Chem, 2010)
